Legend:
[1] = system: Intestinal Phosphate Absorption; test: Intestinal phosphate absorption: oral 33P dose after gavage of phosphate binder; type: in vivo, rats; settings: for amount of 33P remaining in the digestive tract compared with water (FIG. 3A) / serum 33P levels compared with water (FIG. 3B): 10 mg calcium, 14.4 mg Renagel or novel binder (Table 1); for binding / absorption of an oral 33P dose (summary): administered orally in rats; for 33P remaining in the intestine compared to Renagel, dose response study (FIG. 4A) / serum 33P levels compared to Renagel, dose response study (FIG. 4B): two highest levels of DAB-8 and DAB-16, highest level of DAB-64, vs 14.4 mg Renagel
Description: (§1) Animals. Male Sprague-Dawley rats (Harlan Sprague-Dawley, Madison, Wis.) weighing approximately 120 grams were used in all experiments.
In experiments to measure ^33P absorption, the rats were fed a laboratory chow diet (Lab Diet 5012, Richmond, Ind.) containing 1% calcium and 0.7% phosphorus ad libitum for less than one week prior to the experiment.
Intestinal Phosphate Absorption. Following an overnight fast, rats were administered 0.5 mL water or an oral phosphate binder dissolved in water via gastric gavage. A second dose of 0.5 mL containing 3 μCi ^33P (as H3PO4, specific activity 155.8 Ci/mg, New England Nuclear/Perkin Elmer, Boston, Mass.) in a 10, 50, or 100 mM KH2PO4 buffer at pH 7.4 was immediately administered via gastric gavage. Rats were killed by CO2 asphyxiation immediately or 60 minutes after the oral dose. The rats killed immediately (labeled “0 min control” in figures) were used to determine if the oral ^33P dose was properly administered and completely recovered.
Blood was collected via heart puncture and centrifuged at 1500×g for 15 minutes at 22° C. to yield serum. A suture was tied to the cranial end of the esophagus to contain liquid inside the stomach. The entire digestive tract was then removed and allowed to dissolve for several days in concentrated HNO3 (approximately 1 mL HNO3 per gram tissue). The exact volume of the dissolved digestive tract was determined by diluting the dissolved tissues to equal volumes with water.
The amount of radioactivity in total body serum and total volume of dissolved tissue was determined following liquid scintillation counting of 50 μL aliquots in triplicate (Tri-Carb Liquid Scintillation Analyzer, Perkin-Elmer/Packard, Boston, Mass.). Total body serum was estimated to be 40 mL serum/kg body weight. (Hawk T et al., 1999, Formulary for laboratory animals, Ames, Iowa: Iowa State University Press.)
(§2) Statistical analysis. Data are presented as means±standard error of the means (SEM). Treatment groups were compared by a fully factorial analysis of variance (ANOVA) and means were subjected to Tukey, Scheffe, and Fisher's Least-Significant-Difference (LSD) tests (Systat 5.2.1, Systat Software, Inc., Point Richmond, Calif.). Differences were considered significant if at least two of the tests detected significance with a p-value <0.05, unless specified otherwise.
Materials and Methods. The relevant materials and methods were the same as set forth above except that instead of using “0.5 mL of water or 39.5 mg calcium acetate, 14.4 mg RENAGEL, or up to 132.8 mg of test dendrimer,” the following was used “0.5 mL of water, 14.4 mg RENAGEL or 10 mg DAB-8 as the hydroacetate or hydrocitrate form dissolved in water.”

[2] = system: Intestinal Phosphate Absorption; test: Fecal calcium and phosphorus measurements, binder in purified diet; type: in vivo, rats; settings: for mg P per gram feces: 48 h fecal collection, mean ± SEM, control 3.79 ± 0.18; for fecal phosphorus levels versus control diet or diet with 0.15% Renagel: DAB-8 and DAB-16 significant by Fisher's LSD test only
From the text: as §1
In experiments to measure fecal calcium and phosphorus levels, rats were fed purified diet described previously for 9 days. (Suda T et al., Biological activity of 25-hydroxyergocalciferol in rats, J Nutr 1970, 100:1049-1052). This diet was mixed with egg white protein (Harlan Teklad, Madison, Wis.) and contained 0.20% inorganic phosphorus and 0.47% calcium. The purified diet was supplemented with 100 μL soybean oil (Wesson oil, ConAgra Foods, Irvine, Calif.) containing 500 μg α-tocopherol, 60 μg menadione, 40 μg β-carotene, and 1.875 μg cholecalciferol three times each week.
Fecal calcium and phosphorus measurements. Rats were fed the purified diet described above or the same diet with 1.2% calcium, 0.15% Renagel®, or 0.15% DAB-4, DAB-8, or DAB-16 for 7 days. Rats were then moved to metabolic cages and fecal matter was collected for 48 hours. Fecal samples were frozen, lyophilized, and heated to over 600° C. overnight in a muffle oven. Remaining ash was then dissolved overnight in 25 mL 6 N HCl. The calcium concentration of the acid was determined by flame atomic absorption spectroscopy (Model 3110, Perkin Elmer, Norwalk, Conn.) using an aliquot of the dissolved ash diluted 1:40 with 1 g/L LaCl3. The phosphorus concentration of an aliquot of the dissolved ash was determined by a colorimetric assay described previously. (Itaya K et al., A new micromethod for the colorimetric determination of inorganic phosphate, Clin Chim Acta 1966, 14:361-366).
as §2

rats = test: Oral tolerability of DAB dendrimers fed in the diet; type: in vivo; settings: as hydrochlorides; for tolerability in rats: 0.15% of the diet; for tolerability in rats, observation: 0.3% or 0.6% of the diet, after 5 days (data not shown)
From the text: Unfortunately, little is known regarding the toxicity of DAB dendrimers when administered orally. Previous research has shown DAB dendrimers to be cytotoxic in vitro (Duncan R et al., Dendrimer biocompatibility and toxicity, Adv Drug Deliv Rev 2005, 57:2215-2237) and when administered intravenously, the DAB dendrimers are lethal. (Schatzlein A G et al., Preferential liver gene expression with polypropylenimine dendrimers, J Control Release 2005, 101:247-258). In our experiments, however, the DAB dendrimers were well tolerated by rats when administered orally.

[3] = 14.4 mg Renagel or 10 mg DAB-8 as acetate or citrate, 10 mM KH2PO4, 60 min

CC(=O)[O-].CC(=O)[O-].[Ca+2] [calcium, Calcium acetate, reference compound]
amount of 33P remaining in the digestive tract compared with water (FIG. 3A) ([1]; 10 mM KH2PO4, 60 min): significantly increased | serum 33P levels compared with water (FIG. 3B) ([1]; 10 mM KH2PO4, 60 min): significantly reduced | 33P remaining in the intestine after 60 minutes compared with water (FIG. 2A) ([1]; 20 mg calcium (as calcium acetate) or 14.4 mg Renagel by gavage, 33P in 10, 50 or 100 mM KH2PO4, fasted rats): significantly more | 33P bound in the intestine compared with 14.4 mg Renagel (FIG. 2A) ([1]; 20 mg calcium, difference significant in 10 or 100 mM phosphate, 60 min): bound more ^33P in the intestine | serum 33P levels compared with water (FIG. 2B) ([1]; calcium (printed 10 mg) or 14.4 mg Renagel, 10, 50 or 100 mM KH2PO4, 60 min): significant decrease | mg P per gram feces ([2]; 1.20% Ca diet for 7 days): 4.39 ± 0.23 mg P per gram feces | fecal phosphorus versus control diet ([2]; 1.20% calcium diet): increased, though not significantly

Cl.Cl.Cl.Cl.Cl.Cl.NCCCN(CCCN)CCCCN(CCCN)CCCN [DAB-4, polypropylenimine tetraamine Dendrimer perhydrochloride]
tolerability in rats (rats): tolerated | tolerability in rats, observation (rats): only softened stool was observed | amount of 33P remaining in the digestive tract compared with water (FIG. 3A) ([1]; 10 mM KH2PO4, 60 min): significantly increased | serum 33P levels compared with water (FIG. 3B) ([1]; 10 mM KH2PO4, 60 min): significantly reduced | mg P per gram feces ([2]; 0.15% of diet for 7 days): 4.30 ± 0.13 mg P per gram feces | fecal phosphorus levels versus control diet or diet with 0.15% Renagel ([2]; 0.15% of diet): increased, though not significantly

Cl.Cl.Cl.Cl.NC[C@@H](N)[C@@H](N)CN [KB-54, erythro-1,2,3,4-tetraminobutane tetrahydrochloride]
amount of 33P remaining in the digestive tract compared with water (FIG. 3A) ([1]; 10 mM KH2PO4, 60 min): significantly increased | serum 33P levels compared with water (FIG. 3B) ([1]; 10 mM KH2PO4, 60 min): significantly reduced | binding / absorption of an oral 33P dose (summary) [1]: reduced the absorption

Cl.Cl.N[C@@H]1CO[C@@H]2[C@H]1OC[C@H]2N [FC, 1,4:3,6-Dianhydro-2,5-diamino-2,5-dideoxy-D-iditol dihydrochloride]
amount of 33P remaining in the digestive tract compared with water (FIG. 3A) ([1]; 10 mM KH2PO4, 60 min): did not affect | serum 33P levels compared with water (FIG. 3B) ([1]; 10 mM KH2PO4, 60 min): slight, but significant, decrease | binding / absorption of an oral 33P dose (summary) [1]: does not appear to bind

Polypropylenimine tetrahexacontaamine Dendrimer perhydrochloride [DAB-64]
amount of 33P remaining in the digestive tract compared with water (FIG. 3A) ([1]; 10 mM KH2PO4, 60 min): significantly increased | serum 33P levels compared with water (FIG. 3B) ([1]; 10 mM KH2PO4, 60 min): significantly reduced | 33P remaining in the intestine compared to Renagel, dose response study (FIG. 4A) [1]: significantly increased | serum 33P levels compared to Renagel, dose response study (FIG. 4B) [1]: significantly reduced

polypropylenimine octaamine Dendrimer perhydrochloride [DAB-8]
tolerability in rats (rats): tolerated | tolerability in rats, observation (rats): only softened stool was observed | amount of 33P remaining in the digestive tract compared to a comparable amount of Renagel (FIG. 3A) ([1]; 10 mM KH2PO4, 60 min): bound significantly more | serum 33P levels compared to a comparable amount of Renagel (FIG. 3B) ([1]; 10 mM KH2PO4, 60 min): significantly reduced | amount of 33P remaining in the digestive tract compared to a comparable amount of Renagel (FIG. 3A) ([1]; 10 mM KH2PO4, 60 min, listed as DAB-8-Cl): significantly increased | amount of 33P remaining in the digestive tract compared with water (FIG. 3A) ([1]; 10 mM KH2PO4, 60 min): significantly increased | serum 33P levels compared with water (FIG. 3B) ([1]; 10 mM KH2PO4, 60 min): significantly reduced | 33P remaining in the intestine compared to Renagel, dose response study (FIG. 4A) [1]: significantly increased | serum 33P levels compared to Renagel, dose response study (FIG. 4B) [1]: significantly reduced | mg P per gram feces ([2]; 0.15% of diet for 7 days): 4.71 ± 0.53 mg P per gram feces | fecal phosphorus levels versus control diet or diet with 0.15% Renagel ([2]; 0.15% of diet): significantly increased | increase in fecal phosphorus versus the increase from excess calcium or an equivalent amount of Renagel ([2]; 0.15% of diet, Fisher's LSD test only): significantly higher

DAB-Am-8, Polypropylenimine octaamine Dendrimer citrate (Generation 2.0) [DAB-8 as citrate]
33P in the serum compared with vehicle pretreatment (FIG. 26) [1, 3]: significantly less | 33P retained in the gut compared with vehicle pretreatment (FIG. 25) [1, 3]: significantly more

Source: patent US8114393B2, “Methods and compositions for phosphate binding” (Wisconsin Alumni Research Foundation, priority 2005, dated 2012)
